Results taken from patent publication US6277829A, “Process for preparing of aqueous formulation for opthalmic use” (S.I.F.I. Societa Industria Farmaceutica Italiana S.p.A., priority 1999, dated 2001).
In brackets after ≈: the same amount, converted by molar mass.

Columns and labels:
[1] = solubility in aqueous solution; type: physicochemical; details: aqueous citric acid/phosphate; process of the invention (citric acid/phosphate); read-out: solubility of azithromycin in aqueous solution
Source text: Formulations containing azithromycin at concentration ranging from 0.01 to 10% w/v, more particularly between 0.3 and 5% w/v, are the most preferred.

[2] = test system: Ps. aeruginosa ATCC 9027; assay: In vitro antibacterial activity, MBC; type: cell-based; details: Pseudomonas aeruginosa
Method: (§1) In vitro bacteriostatic/bactericidal activity of azithromycin in different ophthalmic solutions has been evaluated as a function of ([H+]). Assessment of the activity it has been carried out by standardized method recommended by the National Committee for Clinical Laboratory Standards (NCCLS). […] Accordingly, three aliquots of Mueller-Hinton broth have been adjusted to the same pH of the azithromycin solutions (three) to be tested. […] Incubation for Staphylococcus spp. and Pseudomonas spp. needs aerobic conditions whereas Streptococcus spp. and Haernophilus spp. require partial anaerobic conditions during the period of incubation (5%, CO2).

[3] = test system: H. influenzae ATCC 49247; assay: In vitro antibacterial activity, MBC; type: cell-based; details: Haemophilus influenzae
Method: as §1

[4] = test system: S. epidermidis ATCC 12228; assay: In vitro antibacterial activity, MBC; type: cell-based; details: Staphylococcus epidermidis
Method: as §1

[5] = test system: H. influenzae ATCC 9006; assay: In vitro antibacterial activity, MBC; type: cell-based; details: Haemophilus influenzae
Method: as §1

[6] = test system: S. aureus ATCC 25923; assay: In vitro antibacterial activity, MBC; type: cell-based; details: Staphylococcus aureus
Method: as §1

[7] = test system: Ps. aeruginosa ATCC 27853; assay: In vitro antibacterial activity, MBC; type: cell-based; details: Pseudomonas aeruginosa
Method: as §1

[8] = test system: S. aureus ATCC 6538P; assay: In vitro antibacterial activity, MBC; type: cell-based; details: Staphylococcus aureus, ATCC6538P
Method: as §1

[9] = test system: S. aureus ATCC 29213; assay: In vitro antibacterial activity, MBC; type: cell-based; details: Staphylococcus aureus
Method: as §1

[10] = test system: St. Pneumoniae ATCC 49619; assay: In vitro antibacterial activity, MBC; type: cell-based; details: Streptococcus pneumoniae
Method: as §1

[11] = test system: St. Pyogenes ATCC 21547; assay: In vitro antibacterial activity, MBC; type: cell-based; details: Streptococcus pyogenes
Method: as §1

[12] = cited from earlier work
[13] = test system: Ps. aeruginosa ATCC 9027; assay: In vitro antibacterial activity, MIC; type: cell-based; details: Pseudomonas aeruginosa
Source text: (§2) In vitro bacteriostatic/bactericidal activity of azithromycin in different ophthalmic solutions has been evaluated as a function of ([H+]). Assessment of the activity it has been carried out by standardized method recommended by the National Committee for Clinical Laboratory Standards (NCCLS). In particular, three azithromycin solutions at different pH (6.5, 7.2, 7.8) in citrate-phosphate have been examined. Accordingly, three aliquots of Mueller-Hinton broth have been adjusted to the same pH of the azithromycin solutions (three) to be tested.
(§3) MIC values (μg/ml) have been measured by turbidity standard method after incubation of azithromycin aliquots, at the different pH, ranging from 18 to 24 h. Incubation for Staphylococcus spp. and Pseudomonas spp. needs aerobic conditions whereas Streptococcus spp. and Haernophilus spp. require partial anaerobic conditions during the period of incubation (5%, CO2).
(§4) Concentration of azithromycin able to inhibit the growth of the bacteria, after the period of incubation, is defined as the minimum inhibitory concentration (MIC).

[14] = test system: H. influenzae ATCC 49247; assay: In vitro antibacterial activity, MIC; type: cell-based; details: Haemophilus influenzae
Source text: as §2, §3, §4

[15] = test system: S. epidermidis ATCC 12228; assay: In vitro antibacterial activity, MIC; type: cell-based; details: Staphylococcus epidermidis
Source text: as §2, §3, §4

[16] = test system: H. influenzae ATCC 9006; assay: In vitro antibacterial activity, MIC; type: cell-based; details: Haemophilus influenzae
Source text: as §2, §3, §4

[17] = test system: S. aureus ATCC 25923; assay: In vitro antibacterial activity, MIC; type: cell-based; details: Staphylococcus aureus
Source text: as §2, §3, §4

[18] = test system: St. Pryogenes ATCC 21547; assay: In vitro antibacterial activity, MIC; type: cell-based
Source text: as §2, §3, §4

[19] = test system: Ps. aeruginosa ATCC 27853; assay: In vitro antibacterial activity, MIC; type: cell-based; details: Pseudomonas aeruginosa
Source text: as §2, §3, §4

[20] = test system: S. aureus ATCC 6538P; assay: In vitro antibacterial activity, MIC; type: cell-based; details: Staphylococcus aureus, ATCC6538P
Source text: as §2, §3, §4

[21] = test system: S. aureus ATCC 29213; assay: In vitro antibacterial activity, MIC; type: cell-based; details: Staphylococcus aureus
Source text: as §2, §3, §4

[22] = test system: St. Pneumoniae ATCC 49619; assay: In vitro antibacterial activity, MIC; type: cell-based; details: Streptococcus pneumoniae
Source text: as §2, §3, §4

[23] = background statement; cited from earlier work
[24] = test system: Staphylococcus aureus; assay: MIC90 for Staphylococcus aureus; type: cell-based
[25] = Azithromycin distribution in aqueous humor after topical application; type: in vivo, white New Zealand rabbits; details: detection limit 3.8
Method: (§5) Twelve male white New Zealand rabbits (weighing 1.8-2.3 kg) have been randomly divided in three groups (consisting of four animals each).
(§6) I Group: three instillations (animals have been sacrificed 6 hours after the first dosing)
(§7) II Group: six instillations (animals have been sacrificed 12 hours after the first dosing)
(§8) III Group: six instillations (animals have been sacrificed 24 hours after the first dosing)
(§9) Aqueous humor has been drawn away with a 23-gauge needle attached to an insulin syringe of 1 ml. After enucleation the cornea has been excised at the limbus and removed from the eyeball. All specimens have been carefully weighed, then immediately frozen at -20° C. […] Each specimen has been ground and homogenized with 1 ml of PBS (2 min., 24,000 rpm). The suspension has been mixed with an equal volume of acetonitrile and stored at 0° C. After 1 hour, the samples have been centrifuged at 0° C. […] Aqueous humor has been directly mixed with acetonitrile before being centrifuged.

[26] = Method: The final solution (100 ml), has been sterilized and distributed in appropriate vials.
[27] = test system: gram-positive organisms; details: compared with other macrolides; cited from earlier work
[28] = in vivo; details: rabbit, topical or ocular, Ct (tissue concentration of azithromycin)
Method: as §5, §6, §7, §8, §9

[29] = test system: gram-negative organisms; details: some gram-negative organisms, compared with other macrolides; cited from earlier work
[30] = in vivo; set-up: species or system white New Zealand rabbits; details: rabbit, topical or ocular, Ct (tissue concentration of azithromycin)
Method: as §5, §6, §7, §8, §9

[31] = titration of azithromycin and clarithromycin, dispersed in water, with citric acid (FIG. 1, FIG. 2); type: physicochemical

Structure (SMILES): CC[C@H]1OC(=O)[C@H](C)[C@@H](O[C@H]2C[C@@](C)(OC)[C@@H](O)[C@H](C)O2)[C@H](C)[C@@H](O[C@@H]2O[C@H](C)C[C@H](N(C)C)[C@H]2O)[C@](C)(O)C[C@@H](C)CN(C)[C@H](C)[C@@H](O)[C@]1(C)O [azithromycin]
- solubility [1]: > 100 mg/mL
- MBC ([2]; ATCC9027, pH 7.2): > 200 µg/mL
- MBC ([2]; ATCC9027, pH 7.5): 200 µg/mL (≈ 267 µM)
- MBC ([3]; ATCC49247, pH 6.5): 7 µg/mL (≈ 9.35 µM)
- MBC ([3]; ATCC49247, pH 7.2): 3.5 µg/mL (≈ 4.67 µM)
- MBC ([3]; ATCC49247, pH 7.5): 3 µg/mL (≈ 4.01 µM)
- MBC ([4]; ATCC12228, pH 6.5): > 4 µg/mL
- MBC ([4]; ATCC12228, pH 7.2): 3 µg/mL (≈ 4.01 µM)
- MBC ([4]; ATCC12228, pH 7.5): 2 µg/mL (≈ 2.67 µM)
- MBC ([5]; ATCC9006, pH 6.5): 6 µg/mL (≈ 8.01 µM)
- MBC ([5]; ATCC9006, pH 7.2): 3.5 µg/mL (≈ 4.67 µM)
- MBC ([5]; ATCC9006, pH 7.5): 3.5 µg/mL (≈ 4.67 µM)
- MBC ([6]; ATCC25923, pH 6.5): > 4 µg/mL
- MBC ([6]; ATCC25923, pH 7.2): 3.25 µg/mL (≈ 4.34 µM)
- MBC ([6]; ATCC25923, pH 7.5): 2 µg/mL (≈ 2.67 µM)
- MBC ([7]; ATCC27853, pH 7.2): 100 µg/mL (≈ 134 µM)
- MBC ([7]; ATCC27853, pH 7.5): 50 µg/mL (≈ 66.8 µM)
- MBC ([8]; pH 6.5): > 4 µg/mL
- MBC ([8]; pH 7.2): 2.5 µg/mL (≈ 3.34 µM)
- MBC ([8]; pH 7.5): 1.75 µg/mL (≈ 2.34 µM)
- MBC ([9]; ATCC29213, pH 6.5): > 4 µg/mL
- MBC ([9]; ATCC29213, pH 7.2): > 4 µg/mL
- MBC ([9]; ATCC29213, pH 7.5): 2.25 µg/mL (≈ 3 µM)
- MBC ([10]; ATCC49619, pH 6.5): 3 µg/mL (≈ 4.01 µM)
- MBC ([10]; ATCC49619, pH 7.2): 0.45 µg/mL (≈ 0.601 µM)
- MBC ([10]; ATCC49619, pH 7.5): 0.3 µg/mL (≈ 0.401 µM)
- MBC ([11]; ATCC21547, pH 6.5): 3 µg/mL (≈ 4.01 µM)
- MBC ([11]; ATCC21547, pH 7.2): 0.6 µg/mL (≈ 0.801 µM)
- MBC ([11]; ATCC21547, pH 7.5): 0.35 µg/mL (≈ 0.467 µM)
- intracellular distribution into specific tissues ([12]; after oral administration): extensive intracellular distribution
- Half-life ([12]; in vivo): extremely elevated
- MIC ([13]; ATCC9027, pH 6.5): 200 µg/mL (≈ 267 µM)
- MIC ([13]; ATCC9027, pH 7.2): 25 µg/mL (≈ 33.4 µM)
- MIC ([13]; ATCC9027, pH 7.8): 6.25 µg/mL (≈ 8.34 µM)
- MIC ([14]; ATCC49247, pH 6.5): 3 µg/mL (≈ 4.01 µM)
- MIC ([14]; ATCC49247, pH 7.2): 2 µg/mL (≈ 2.67 µM)
- MIC ([14]; ATCC49247, pH 7.8): 1 µg/mL (≈ 1.34 µM)
- MIC ([15]; ATCC12228, pH 6.5): 2.5 µg/mL (≈ 3.34 µM)
- MIC ([15]; ATCC12228, pH 7.2): 1.5 µg/mL (≈ 2 µM)
- MIC ([15]; ATCC12228, pH 7.8): 0.75 µg/mL (≈ 1 µM)
- MIC ([16]; ATCC9006, pH 6.5): 3 µg/mL (≈ 4.01 µM)
- MIC ([16]; ATCC9006, pH 7.2): 2 µg/mL (≈ 2.67 µM)
- MIC ([16]; ATCC9006, pH 7.8): 0.5 µg/mL (≈ 0.668 µM)
- MIC ([17]; ATCC25923, pH 6.5): 3 µg/mL (≈ 4.01 µM)
- MIC ([17]; ATCC25923, pH 7.2): 1.5 µg/mL (≈ 2 µM)
- MIC ([17]; ATCC25923, pH 7.8): 0.75 µg/mL (≈ 1 µM)
- MIC ([18]; pH 6.5): 1.5 µg/mL (≈ 2 µM)
- MIC ([18]; pH 7.2): 0.37 µg/mL (≈ 0.494 µM)
- MIC ([18]; pH 7.8): 0.2 µg/mL (≈ 0.267 µM)
- MIC ([19]; ATCC27853, pH 6.5): > 200 µg/mL
- MIC ([19]; ATCC27853, pH 7.2): 50 µg/mL (≈ 66.8 µM)
- MIC ([19]; ATCC27853, pH 7.8): 12.5 µg/mL (≈ 16.7 µM)
- MIC ([20]; pH 6.5): 2.25 µg/mL (≈ 3 µM)
- MIC ([20]; pH 7.2): 1 µg/mL (≈ 1.34 µM)
- MIC ([20]; pH 7.8): 0.75 µg/mL (≈ 1 µM)
- MIC ([21]; ATCC29213, pH 6.5): 3.25 µg/mL (≈ 4.34 µM)
- MIC ([21]; ATCC29213, pH 7.2): 2.25 µg/mL (≈ 3 µM)
- MIC ([21]; ATCC29213, pH 7.8): 1 µg/mL (≈ 1.34 µM)
- MIC ([22]; ATCC49619, pH 6.5): 1.25 µg/mL (≈ 1.67 µM)
- MIC ([22]; ATCC49619, pH 7.2): 0.25 µg/mL (≈ 0.334 µM)
- MIC ([22]; ATCC49619, pH 7.8): 0.15 µg/mL (≈ 0.2 µM)
- water solubility [23]: poor water solubility
- MIC90 [24]: 2.25 µg/mL (≈ 3 µM)
- azithromycin concentration in aqueous humor [25]: < 3.8 µg/mL
- effect of azithromycin concentration on stability [26]: does not affect the stability of the final product
- antibacterial efficacy [27]: same efficacy
- concentration at 6 h [28]: < 100000 ng/g
- concentration at 24 h [28]: 216000 ng/g
- concentration at 12 h ([28]; Average): 222000 ng/g
- concentration at 24 h ([28]; Average): 169000 ng/g
- antibacterial activity [29]: superior antibacterial activity
- concentration at 6 h [30]: < 200000 ng/g
- concentration at 6 h ([30]; Average): 250000 ng/g
- concentration at 24 h ([30]; Average): 420000 ng/g
- solubilization by citric acid ([31]; citric acid, physiological range of pH): elevated concentration
- equivalent point ([31]; titration with citric acid): ~7.0 pH
